Measurements: ChEMBL document CHEMBL3351570, “Design and synthesis of 2-phenylnaphthalenoids as inhibitors of DNA topoisomeraseIIα and antitumor agents” (Eur J Med Chem, 2014)
Calls of active or inactive are those of the source.

What was measured:
MDA-MB-231 [1] = assay: Effect on cdc2 protein expression in human MDA-MB-231 cells at 1 to 5 uM after 24 hrs by Western blot method; assay type: functional, cell-based
Nucleic Acid = assay: Induction of DNA intercalation in Escherichia coli pBR322 DNA at 50 to 200 uM by DNA gel electrophoresis; assay type: nucleic-acid assay
[2] = molecular target: DNA topoisomerase 2-alpha (Homo sapiens) (UniProt P11388); assay: Inhibition of human recombinant topoisomerase 2alpha assessed as reduction in kDNA decatenation at 100 uM incubated for 30 mins by DNA gel electrophoresis
DNA topoisomerase 2-alpha (Homo sapiens), sequence (P11388 whole entry): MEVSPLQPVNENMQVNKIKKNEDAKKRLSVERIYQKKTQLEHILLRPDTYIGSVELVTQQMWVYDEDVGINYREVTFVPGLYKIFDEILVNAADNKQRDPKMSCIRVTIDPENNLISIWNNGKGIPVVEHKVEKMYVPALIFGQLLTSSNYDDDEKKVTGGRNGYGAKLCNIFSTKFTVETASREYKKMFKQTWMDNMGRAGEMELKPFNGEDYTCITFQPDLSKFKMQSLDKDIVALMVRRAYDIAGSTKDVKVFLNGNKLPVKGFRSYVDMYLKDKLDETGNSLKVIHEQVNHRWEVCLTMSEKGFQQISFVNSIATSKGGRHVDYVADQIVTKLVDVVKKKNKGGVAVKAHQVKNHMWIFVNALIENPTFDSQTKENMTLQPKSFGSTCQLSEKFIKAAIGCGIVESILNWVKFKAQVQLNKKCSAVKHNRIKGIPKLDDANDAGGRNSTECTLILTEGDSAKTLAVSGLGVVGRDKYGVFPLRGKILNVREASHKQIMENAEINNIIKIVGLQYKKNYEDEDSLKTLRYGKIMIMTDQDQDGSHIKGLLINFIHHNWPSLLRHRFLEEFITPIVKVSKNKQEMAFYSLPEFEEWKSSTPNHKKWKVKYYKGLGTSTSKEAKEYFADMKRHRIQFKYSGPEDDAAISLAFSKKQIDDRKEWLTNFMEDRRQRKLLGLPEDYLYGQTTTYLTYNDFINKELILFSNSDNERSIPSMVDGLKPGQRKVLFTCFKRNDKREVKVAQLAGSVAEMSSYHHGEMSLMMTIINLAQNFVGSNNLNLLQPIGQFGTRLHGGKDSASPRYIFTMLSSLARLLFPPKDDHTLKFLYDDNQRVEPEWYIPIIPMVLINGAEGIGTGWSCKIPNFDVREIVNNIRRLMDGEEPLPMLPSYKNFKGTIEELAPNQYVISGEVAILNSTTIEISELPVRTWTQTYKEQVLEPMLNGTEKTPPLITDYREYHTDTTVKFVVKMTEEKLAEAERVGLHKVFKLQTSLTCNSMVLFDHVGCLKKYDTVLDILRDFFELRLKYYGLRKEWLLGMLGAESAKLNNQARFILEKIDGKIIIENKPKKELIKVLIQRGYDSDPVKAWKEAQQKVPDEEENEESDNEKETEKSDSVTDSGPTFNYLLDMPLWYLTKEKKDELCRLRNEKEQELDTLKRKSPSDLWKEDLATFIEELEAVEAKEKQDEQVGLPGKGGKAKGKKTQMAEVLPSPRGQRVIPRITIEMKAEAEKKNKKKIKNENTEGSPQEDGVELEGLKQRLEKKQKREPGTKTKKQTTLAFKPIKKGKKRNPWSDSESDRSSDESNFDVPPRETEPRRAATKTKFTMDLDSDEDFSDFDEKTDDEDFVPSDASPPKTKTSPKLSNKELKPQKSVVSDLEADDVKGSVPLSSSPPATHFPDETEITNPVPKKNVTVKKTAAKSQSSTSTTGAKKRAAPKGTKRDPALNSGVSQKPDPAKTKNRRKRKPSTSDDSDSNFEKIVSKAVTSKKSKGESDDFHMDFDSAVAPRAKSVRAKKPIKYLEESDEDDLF

HeLa = assay: Cytotoxicity against human HeLa cells after 72 hrs by sulforhodamine B assay; assay type: functional, cell-based
[3] = molecular target: DNA topoisomerase 2-alpha (Homo sapiens) (UniProt P11388); assay: Inhibition of human recombinant topoisomerase 2alpha assessed as reduction in pBR322 DNA relaxation at 100 uM incubated for 30 mins by DNA gel electrophoresis
MDA-MB-231 [4] = assay: Induction of DNA damage in human MDA-MB-231 cells assessed as increase in gammaH2AX protein expression at 1 to 5 uM after 24 hrs by Western blot method; assay type: functional, cell-based
MDA-MB-231 [5] = assay: Induction of DNA damage in human MDA-MB-231 cells assessed as increase in p53 expression level at 1 to 5 uM after 24 hrs by Western blot method; assay type: functional, cell-based
MDA-MB-231 [6] = assay: Induction of DNA damage in human MDA-MB-231 cells assessed as ATM S1981 phosphorylation at 1 to 5 uM after 24 hrs by Western blot method; assay type: functional, cell-based
MDA-MB-231 [7] = assay: Induction of DNA damage in human MDA-MB-231 cells assessed as ATM expression level at 1 to 5 uM after 24 hrs by Western blot method; assay type: functional, cell-based
MDA-MB-231 [8] = assay: Antitumor activity against human MDA-MB-231 cells xenografted in BALB/c-nu mouse assessed as reduction in tumor weight at 20 mg/kg, iv dosed every other day for 15 days; assay type: functional; details: MDA-MB-231, 360 h
MDA-MB-231 [9] = assay: Induction of cell cycle arrest in human MDA-MB-231 cells assessed as reduction in accumulation at G0/G1 phase at 5 uM after 24 hrs by propidium iodide staining based flow cytometry; assay type: functional
MDA-MB-231 [10] = assay: Increase in histone H3 Ser10 phosphorylation in human MDA-MB-231 cells at 1 to 5 uM after 24 hrs by Western blot method; assay type: functional, cell-based
[11] = molecular target: DNA topoisomerase 2-alpha (Homo sapiens) (UniProt P11388); assay: Inhibition of human recombinant topoisomerase 2alpha assessed as increase in linear DNA using circular supercoiled plasmid DNA substrate at 100 to 200 uM incubated for 30 mins by ethidium bromide staining based DNA gel electrophoresis
MDA-MB-231 [12] = assay: Induction of DNA damage in human MDA-MB-231 cells assessed as ATR expression level at 1 to 5 uM after 24 hrs by Western blot method; assay type: functional, cell-based
MDA-MB-231 [13] = assay: Induction of cell cycle arrest in human MDA-MB-231 cells assessed as reduction in accumulation at S phase at 5 uM after 24 hrs by propidium iodide staining based flow cytometry; assay type: functional
MDA-MB-231 [14] = assay: Cytotoxicity against human MDA-MB-231 cells after 72 hrs by sulforhodamine B assay; assay type: functional, cell-based; details: MDA-MB-231, 72 h
MDA-MB-231 [15] = assay: Induction of DNA damage in human MDA-MB-231 cells assessed as increase in p53 S46 phosphorylation at 1 to 5 uM after 24 hrs by Western blot method; assay type: functional, cell-based
Mus musculus = assay: Toxicity in nude BALB/c mouse xenografted with human MDA-MB-231 cells assessed as reduction in body weight at 20 mg/kg, iv dosed every other day for 15 days (reference value: 24.2 g); assay type: organism-based; parameters: dose 20 mg/kg, route intravenous; details: in vivo, 360 h
MDA-MB-231 [16] = assay: Induction of DNA damage in human MDA-MB-231 cells assessed as increase in ATR S428 phosphorylation at 1 to 5 uM after 24 hrs by Western blot method; assay type: functional, cell-based
[17] = molecular target: DNA topoisomerase 2-alpha (Homo sapiens) (UniProt P11388); assay: Inhibition of human recombinant topoisomerase 2alpha assessed as reduction in pBR322 DNA relaxation at 200 uM incubated for 30 mins by DNA gel electrophoresis
MDA-MB-231 [18] = assay: Induction of cell cycle arrest in human MDA-MB-231 cells assessed as accumulation at G2/M phase at 5 uM after 24 hrs by propidium iodide staining based flow cytometry (reference value: 25.19%); assay type: functional
A549 = assay: Cytotoxicity against human A549 cells after 72 hrs by sulforhodamine B assay; assay type: functional, cell-based; details: A549, 72 h
[19] = molecular target: DNA topoisomerase 2-alpha (Homo sapiens) (UniProt P11388); assay: Inhibition of human recombinant topoisomerase 2alpha assessed as reduction in pBR322 DNA relaxation incubated for 30 mins by DNA gel electrophoresis
MDA-MB-231 [20] = assay: Increase in cyclin B protein expression in human MDA-MB-231 cells at 1 to 5 uM after 24 hrs by Western blot method; assay type: functional, cell-based

OCc1cc(-c2ccc3cc(O)ccc3c2)ccc1O
1 µM: IC50 (MDA-MB-231 [14])
2.8 µM: IC50 (A549)
77.79%: Activity (MDA-MB-231 [18])
43.1%: inhibition in vivo at 20 mg/kg (MDA-MB-231 [8])
active: inhibition [2] | inhibition [3] | Activity (MDA-MB-231 [4]) Dose-dependent effect | Activity (MDA-MB-231 [5]) | Activity (MDA-MB-231 [9]) | Activity (MDA-MB-231 [10]) | inhibition [11] | Activity (MDA-MB-231 [13]) | Activity (MDA-MB-231 [15]) | Activity (MDA-MB-231 [16]) | inhibition [17] | inhibition [19] Dose-dependent effect | Activity (MDA-MB-231 [20])
inactive: Activity (MDA-MB-231 [1]) | Activity (Nucleic Acid) | Activity (MDA-MB-231 [6]) | Activity (MDA-MB-231 [7]) | Activity (MDA-MB-231 [12])
Non-toxic: Activity (Mus musculus)
1.3 µM: IC50 (HeLa)
